Data from PubChem BioAssay AID1918941 (Molecular Pharmacology Branch, DTP, NCI, 2023).
“And” between values parts separate entries of the source, which are not always exact repeats. Equal values may be shown once.

Tested on: SW 1271 complex spheroids, viability
Test: Anticancer human tumor SW 1271 cell line growth inhibition [LSD1];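 note: spheroids exposed to agents for 7 days before luminescence read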;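 for viability, T/C: 100% = DMSO vehicle control viability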
Settings: for viability, T/C: stronger effect = lower value
Description: Multicellular complex tumor spheroid response to LSD1 Inhibitor Iadademstat in combination with a variety of drugs and investigational agents in selected tumor cell lines
The current study was undertaken to assess response to LSD1 inhibitors in combination with standard-of-care drugs and investigational agents in solid tumor complex spheroid models as well as in the K-562 leukemia. Complex spheroids include a stromal component modeled by human endothelial cells (HUVEC) and fibroblasts modeled by human mesenchymal stem cells (MSCs). The concentration ranges selected for each drug and investigational agent were based upon clinically achievable concentrations if the clinical Cmax of the agent was known.
Compounds. The drugs and investigational agents used in this study are listed on Table 1. All of the agents used, including staurosporine (NSC755774) and gemcitabine (NSC613327), were obtained from the Developmental Therapeutics Program, NCI. FDA-approved anticancer drugs are available from the NCI at http://dtp.nci.nih.gov/branches/dscb/oncology_drugset_explanation.html. Drugs and investigational agents were >95% pure by proton nuclear magnetic resonance (NMR) and liquid chromatography/mass spectrometry (LC/MS). Stock solutions were prepared at 400x in DMSO, stored at -70 degrees C, and diluted in fresh medium prior to their use. The final concentration of DMSO in cell culture wells never exceeded 0.25% (v/v). The FDA-approved anticancer drug set is available from the Developmental Therapeutics Program at https://dtp.cancer.gov/organization/dscb/obtaining/available_plates.htm. All drugs and investigational agents were tested over a range starting from a high concentration at or near the clinical Cmax and decreasing in half-log increments. If the clinical Cmax for an agent had not been determined, the highest concentration tested was 10 microM.
Cell Lines. The patient-derived cancer cell (PDC) lines: 292921-168-R-J2-PDC, K24384-001-R-PDC, and 521955-158-R2-J5-PDC pancreatic carcinomas, 556581-035-R-J1 ovarian carcinoma, 324938-238-R-J1-PDC, 855422-203-R-J1-PDC and 883617-216-R-J1-PDC urothelial bladder carcinomas, 743489-274-T-PDC renal cell carcinoma, 138582-R-J1 Merkel cell tumor, K60290-347-R-J1 and K57222-313-R-J1-PDC glioblastomas, 653999-131-R-J2-PDC, LG0703-F948-PDC, and 349418-098-R-PDC non-small cell lung carcinomas, 885512-296-R-J2-PDC, 171881-019-R-J1-PDC breast carcinomas and 186277-243-T-J2-PDC and 233499-124-R-J2-PDC colon carcinomas were obtained from the NCI Patient-Derived Models Repository (PDMR, https://pdmr.cancer.gov). The established cell lines NCI/ADR-RES (RRID:CVCL_14520 and OVCAR-5 (RRID:CVCL_1628) ovarian carcinomas, 786-O (RRID:CVCL_1051) and A498 (RRID:CVCL_A498) renal cell carcinoma, NCI-H211 (ATCC, cat. CRL-5824; RRID:CVCL_1529), NCI-H196 (ATCC, cat. CRL-5823, RRID:CVCL_1509), SW 1271 (ATCC, cat. CRL-2177, RRID:CVCL_1716) and NCI-H1876 (ATCC, cat. CRL-5902, RRID:CVCL_1503) small cell lung carcinomas, MDA-MB-231 (RRID:CVCL_0062) and MDA-MB-468 (RRID:CVCL_0419)breast carcinomas (10-12). Pooled donor human umbilical vein endothelial cells (HUVEC, Lonza, cat. CC-2519) and human mesenchymal stem cells (hMSC, Lonza, cat. PT-2501) were purchased from Lonza (Walkersville, MD).
Cell Culture. All cells were maintained in an incubator at 37 degrees C and 5% CO2 with 95% humidity. The PDC lines were cultured according to standard operating procedures established by the NCI PDMR (https://pdmr.cancer.gov). Briefly all PDCs were thawed and cultured in Matrigel-coated flasks prepared with a working solution of 1X Ham's F-12 nutrient mix, without supplementation (Invitrogen, Waltham, MA, cat. 11765054), 100 U/mL penicillin-streptomycin (Invitrogen, cat. 15140122), and 2.5% Matrigel (Corning Inc., Corning, NY, cat. 354248) for the first three passages. […]

[1] = curve of first compound, second compound 0.1 µM
[2] = curve of first compound, second compound 0.316 µM
[3] = curve of first compound, second compound 1 µM
[4] = curve of first compound, second compound 3.16 µM
[5] = curve of first compound, second compound 10 µM
[6] = second compound 0.1 µM, first compound 0.00316 µM
[7] = second compound 0.1 µM, first compound 0.01 µM
[8] = second compound 0.1 µM, first compound 0.0316 µM
[9] = second compound 0.1 µM, first compound 0.1 µM
[10] = second compound 0.316 µM, first compound 0.00316 µM
[11] = second compound 0.316 µM, first compound 0.01 µM
[12] = second compound 0.316 µM, first compound 0.0316 µM
[13] = second compound 0.316 µM, first compound 0.1 µM
[14] = second compound 1 µM, first compound 0.00316 µM
[15] = second compound 1 µM, first compound 0.01 µM
[16] = second compound 1 µM, first compound 0.0316 µM
[17] = second compound 1 µM, first compound 0.1 µM
[18] = second compound 3.16 µM, first compound 0.00316 µM
[19] = second compound 3.16 µM, first compound 0.01 µM
[20] = second compound 3.16 µM, first compound 0.0316 µM
[21] = second compound 3.16 µM, first compound 0.1 µM
[22] = second compound 10 µM, first compound 0.00316 µM
[23] = second compound 10 µM, first compound 0.01 µM
[24] = second compound 10 µM, first compound 0.0316 µM
[25] = second compound 10 µM, first compound 0.1 µM
[26] = second compound 0.1 µM, first compound 0.000316 µM
[27] = second compound 0.1 µM, first compound 0.001 µM
[28] = second compound 0.316 µM, first compound 0.000316 µM
[29] = second compound 0.316 µM, first compound 0.001 µM
[30] = second compound 1 µM, first compound 0.000316 µM
[31] = second compound 1 µM, first compound 0.001 µM
[32] = second compound 3.16 µM, first compound 0.000316 µM
[33] = second compound 3.16 µM, first compound 0.001 µM
[34] = second compound 10 µM, first compound 0.000316 µM
[35] = second compound 10 µM, first compound 0.001 µM

| Compound | IC50 [1] | IC50 [2] | IC50 [3] | IC50 [4] | IC50 [5] | viability, T/C [6] | viability, T/C [7] | viability, T/C [8] | viability, T/C [9] | viability, T/C [10] | viability, T/C [11] | viability, T/C [12] | viability, T/C [13] | viability, T/C [14] | viability, T/C [15] | viability, T/C [16] | viability, T/C [17] | viability, T/C [18] | viability, T/C [19] | viability, T/C [20] | also measured |
| --- | --- | --- | --- | --- | --- | --- | --- | --- | --- | --- | --- | --- | --- | --- | --- | --- | --- | --- | --- | --- | --- |
| COc1cc(C2c3cc4c(cc3C(OC3OC5COC(C)OC5C(O)C3O)C3COC(=O)C23)OCO4)cc(OC)c1O (configuration not stated) | – | – | – | – | – | – | – | – | – | – | – | – | – | – | – | – | – | – | – | – | viability, T/C (compound 0.00949 µM): 84.9% and 100%; viability, T/C (compound 0.03 µM): 79.2% and 82.9%; viability, T/C (compound 0.0949 µM): 72.4% and 64.1%; viability, T/C (compound 0.3 µM): 83.9% and 64.4%; viability, T/C (compound 0.949 µM): 62.5% and 66.3%; viability, T/C (compound 3 µM): 54.7% and 53.3%; IC50 (curve of compound): > 3000 nM |
| Nc1ncn(C2CC(O)C(CO)O2)c(=O)n1 (configuration not stated) + NC1CC1c1ccc(-c2cccc(O)c2)cc1 | > 1000 nM | > 1000 nM | > 1000 nM | > 1000 nM | > 1000 nM | 96.2% | 77.9% | 84.7% | 62.4% | 68% | 73.2% | 75.2% | 71.6% | 76.4% | 73.5% | 81.8% | 56.2% | 69.5% | 69.7% | 69.8% | viability, T/C (second compound 0.1 µM, first compound 0.316 µM): 66.7%; viability, T/C (second compound 0.1 µM, first compound 1 µM): 81%; viability, T/C (second compound 0.316 µM, first compound 0.316 µM): 70.5%; viability, T/C (second compound 0.316 µM, first compound 1 µM): 77.7%; viability, T/C (second compound 1 µM, first compound 0.316 µM): 69.5%; viability, T/C (second compound 1 µM, first compound 1 µM): 64.1%; viability, T/C [21]: 63.9%; viability, T/C (second compound 3.16 µM, first compound 0.316 µM): 52.7%; viability, T/C (second compound 3.16 µM, first compound 1 µM): 72.7%; viability, T/C [22]: 69.5%; viability, T/C [23]: 70.6%; viability, T/C [24]: 61%; viability, T/C [25]: 57.9%; viability, T/C (second compound 10 µM, first compound 0.316 µM): 57.7%; viability, T/C (second compound 10 µM, first compound 1 µM): 59% |
| CC[C@@]1(O)C(=O)OCc2c1cc1n(c2=O)Cc2cc3c(CN(C)C)c(O)ccc3nc2-1 + NC1CCC(NC2CC2c2ccccc2)CC1 | > 100 nM | > 100 nM | 66.1 nM | 71.6 nM | > 100 nM | 78.8% | 63% | 58% | 56.4% | 71.6% | 72.5% | 62% | 58.9% | 80.1% | 66.7% | 59% | 45.4% | 72.9% | 68.3% | 49.7% | viability, T/C [26]: 89.2%; viability, T/C [27]: 93.8%; viability, T/C [28]: 90%; viability, T/C [29]: 74.2%; viability, T/C [30]: 73.4%; viability, T/C [31]: 94.5%; viability, T/C [32]: 95.9%; viability, T/C [33]: 78.2%; viability, T/C [21]: 49.6%; viability, T/C [34]: 88.3%; viability, T/C [35]: 84.2%; viability, T/C [22]: 78.2%; viability, T/C [23]: 60.3%; viability, T/C [24]: 57.5%; viability, T/C [25]: 52.2% |
| CC(C)CC(NC(=O)CNC(=O)c1cc(Cl)ccc1Cl)B1OC(=O)CC(CC(=O)O)(C(=O)O)O1 (configuration not stated) + NC1CC1c1ccc(-c2cccc(O)c2)cc1 | 4.86 nM | 4.67 nM | 4.38 nM | 3.94 nM | 4.36 nM | 76% | 6.29% | 0.38% | 0.5% | 72.1% | 6.64% | 0.44% | 0.17% | 67.8% | 4.77% | 0.26% | 0.21% | 61% | 3.44% | 3.87% | viability, T/C [26]: 86.8%; viability, T/C [27]: 83.1%; viability, T/C [28]: 83.1%; viability, T/C [29]: 85.3%; viability, T/C [30]: 75.1%; viability, T/C [31]: 76.9%; viability, T/C [32]: 73.1%; viability, T/C [33]: 72.1%; viability, T/C [21]: 0.21%; viability, T/C [34]: 66.1%; viability, T/C [35]: 67.6%; viability, T/C [22]: 70.9%; viability, T/C [23]: 3.06%; viability, T/C [24]: 0.15%; viability, T/C [25]: 0.18% |
